The target of experiment [1] is Protein kinase C iota type (Homo sapiens) (UniProt P41743). Put plainly: Inhibition of human recombinant PKCi at 15 nM related to control ULK1.
Experiment [2] concerns the target Proto-oncogene tyrosine-protein kinase receptor Ret (Homo sapiens) (UniProt P07949). Nature of the experiment: Inhibition of human recombinant RET at 40 nM in presence of ATP by radiometric assay relative to control.
For experiment [3], the target named is T1, Tyrosine-protein kinase ITK/TSK (Homo sapiens) (UniProt Q08881).
T1 sequence (whole entry): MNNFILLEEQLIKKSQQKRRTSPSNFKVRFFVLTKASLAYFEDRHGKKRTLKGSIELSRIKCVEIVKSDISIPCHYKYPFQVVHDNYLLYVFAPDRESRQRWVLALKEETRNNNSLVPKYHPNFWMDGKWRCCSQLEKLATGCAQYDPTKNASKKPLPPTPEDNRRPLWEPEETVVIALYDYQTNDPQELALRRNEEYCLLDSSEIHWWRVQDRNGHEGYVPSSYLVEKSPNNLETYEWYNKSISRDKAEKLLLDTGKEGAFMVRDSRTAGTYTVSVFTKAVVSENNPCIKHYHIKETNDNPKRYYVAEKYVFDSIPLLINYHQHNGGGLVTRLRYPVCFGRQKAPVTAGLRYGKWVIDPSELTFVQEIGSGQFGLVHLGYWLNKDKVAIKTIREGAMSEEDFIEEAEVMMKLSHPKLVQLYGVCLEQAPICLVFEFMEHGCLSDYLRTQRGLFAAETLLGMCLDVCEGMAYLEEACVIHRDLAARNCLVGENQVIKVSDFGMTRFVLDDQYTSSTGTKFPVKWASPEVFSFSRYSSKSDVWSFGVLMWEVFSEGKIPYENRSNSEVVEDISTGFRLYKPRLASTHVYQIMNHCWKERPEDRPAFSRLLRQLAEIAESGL
Put plainly: Inhibition of human recombinant ITK at 40 nM related to control ULK1.

Experiment [4] concerns the target Ribosomal protein S6 kinase alpha-5 (Homo sapiens) (UniProt O75582). Nature of the experiment: Inhibition of human recombinant MSK1 at 40 nM related to control ULK1.
Experiment [5] has as its target Rho-associated protein kinase 2 (Homo sapiens) (UniProt O75116). Put plainly: Inhibition of human recombinant ROCK2 at 40 nM related to control ULK1.
In experiment [6] the target is T2, Mitogen-activated protein kinase kinase kinase 5 (Homo sapiens) (UniProt Q99683).
T2 sequence (whole entry): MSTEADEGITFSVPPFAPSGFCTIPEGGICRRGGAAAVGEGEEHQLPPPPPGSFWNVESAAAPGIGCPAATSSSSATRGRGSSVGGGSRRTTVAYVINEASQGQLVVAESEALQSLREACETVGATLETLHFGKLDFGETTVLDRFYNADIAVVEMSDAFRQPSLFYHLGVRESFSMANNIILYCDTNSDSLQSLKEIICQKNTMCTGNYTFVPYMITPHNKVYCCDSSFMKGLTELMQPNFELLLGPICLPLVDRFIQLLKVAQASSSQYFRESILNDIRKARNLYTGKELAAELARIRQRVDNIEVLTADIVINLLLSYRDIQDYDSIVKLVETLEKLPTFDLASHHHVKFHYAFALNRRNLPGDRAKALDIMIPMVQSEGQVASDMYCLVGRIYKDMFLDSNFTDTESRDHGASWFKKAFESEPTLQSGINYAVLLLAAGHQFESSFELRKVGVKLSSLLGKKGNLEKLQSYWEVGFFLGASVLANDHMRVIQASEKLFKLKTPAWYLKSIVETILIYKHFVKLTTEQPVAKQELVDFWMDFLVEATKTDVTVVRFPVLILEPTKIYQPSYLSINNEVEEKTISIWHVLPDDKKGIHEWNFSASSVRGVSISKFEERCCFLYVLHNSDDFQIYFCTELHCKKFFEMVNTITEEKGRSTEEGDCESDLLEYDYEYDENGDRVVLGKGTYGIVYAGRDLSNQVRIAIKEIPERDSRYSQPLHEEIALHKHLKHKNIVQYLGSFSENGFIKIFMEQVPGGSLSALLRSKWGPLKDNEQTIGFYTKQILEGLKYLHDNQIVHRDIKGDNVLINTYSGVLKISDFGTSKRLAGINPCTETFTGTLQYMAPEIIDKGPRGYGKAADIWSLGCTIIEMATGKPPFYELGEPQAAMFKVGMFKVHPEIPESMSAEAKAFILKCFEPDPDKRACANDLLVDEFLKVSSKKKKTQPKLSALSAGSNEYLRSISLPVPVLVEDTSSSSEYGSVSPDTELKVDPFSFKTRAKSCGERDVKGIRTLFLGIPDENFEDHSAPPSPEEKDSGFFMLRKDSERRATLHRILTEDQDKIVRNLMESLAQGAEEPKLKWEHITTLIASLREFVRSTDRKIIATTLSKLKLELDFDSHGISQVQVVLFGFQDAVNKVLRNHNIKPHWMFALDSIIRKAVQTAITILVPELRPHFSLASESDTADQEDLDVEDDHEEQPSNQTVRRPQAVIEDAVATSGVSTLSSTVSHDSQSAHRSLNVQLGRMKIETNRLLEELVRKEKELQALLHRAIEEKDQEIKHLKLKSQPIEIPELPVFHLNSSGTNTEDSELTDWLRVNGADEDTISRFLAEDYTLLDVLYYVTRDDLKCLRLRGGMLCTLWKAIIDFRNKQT
Nature of the experiment: Inhibition of human recombinant MAP3K5 at 500 nM related to control ULK1.

The target of experiment [7] is Serine/threonine-protein kinase SIK3 (Homo sapiens) (UniProt Q9Y2K2). Nature of the experiment: Inhibition of human recombinant QSK at 500 nM related to control ULK1.

Proto-oncogene tyrosine-protein kinase receptor Ret (Homo sapiens), sequence (P07949 whole entry): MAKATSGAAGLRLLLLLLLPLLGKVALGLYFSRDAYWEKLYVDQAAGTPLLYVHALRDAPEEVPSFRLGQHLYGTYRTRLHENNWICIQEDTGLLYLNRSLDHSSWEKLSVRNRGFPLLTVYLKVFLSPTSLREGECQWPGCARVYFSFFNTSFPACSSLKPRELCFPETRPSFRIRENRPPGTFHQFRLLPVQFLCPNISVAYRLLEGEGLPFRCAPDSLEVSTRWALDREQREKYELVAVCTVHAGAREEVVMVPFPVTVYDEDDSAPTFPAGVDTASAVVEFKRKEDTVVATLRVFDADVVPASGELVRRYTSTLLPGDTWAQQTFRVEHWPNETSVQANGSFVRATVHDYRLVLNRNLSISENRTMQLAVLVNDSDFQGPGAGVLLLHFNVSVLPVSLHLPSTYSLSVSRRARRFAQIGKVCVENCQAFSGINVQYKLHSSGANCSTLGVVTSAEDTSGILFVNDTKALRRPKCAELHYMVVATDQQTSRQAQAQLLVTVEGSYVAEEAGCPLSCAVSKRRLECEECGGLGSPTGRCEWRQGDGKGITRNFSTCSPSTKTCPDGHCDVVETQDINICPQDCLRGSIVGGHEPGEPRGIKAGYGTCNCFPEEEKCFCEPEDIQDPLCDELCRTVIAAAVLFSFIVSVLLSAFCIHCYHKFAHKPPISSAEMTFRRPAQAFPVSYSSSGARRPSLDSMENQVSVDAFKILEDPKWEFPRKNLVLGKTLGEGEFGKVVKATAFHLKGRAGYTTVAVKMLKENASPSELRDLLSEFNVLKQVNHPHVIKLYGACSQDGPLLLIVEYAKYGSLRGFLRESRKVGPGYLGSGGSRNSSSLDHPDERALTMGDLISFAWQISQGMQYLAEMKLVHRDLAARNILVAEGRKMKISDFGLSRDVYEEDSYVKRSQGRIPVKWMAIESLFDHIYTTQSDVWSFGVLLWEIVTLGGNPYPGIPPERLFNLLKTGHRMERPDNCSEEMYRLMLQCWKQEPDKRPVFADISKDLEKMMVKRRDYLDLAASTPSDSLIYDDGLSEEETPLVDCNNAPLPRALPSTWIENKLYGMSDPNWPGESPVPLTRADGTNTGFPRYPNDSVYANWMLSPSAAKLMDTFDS
Ribosomal protein S6 kinase alpha-5 (Homo sapiens), sequence (O75582 whole entry, looked up): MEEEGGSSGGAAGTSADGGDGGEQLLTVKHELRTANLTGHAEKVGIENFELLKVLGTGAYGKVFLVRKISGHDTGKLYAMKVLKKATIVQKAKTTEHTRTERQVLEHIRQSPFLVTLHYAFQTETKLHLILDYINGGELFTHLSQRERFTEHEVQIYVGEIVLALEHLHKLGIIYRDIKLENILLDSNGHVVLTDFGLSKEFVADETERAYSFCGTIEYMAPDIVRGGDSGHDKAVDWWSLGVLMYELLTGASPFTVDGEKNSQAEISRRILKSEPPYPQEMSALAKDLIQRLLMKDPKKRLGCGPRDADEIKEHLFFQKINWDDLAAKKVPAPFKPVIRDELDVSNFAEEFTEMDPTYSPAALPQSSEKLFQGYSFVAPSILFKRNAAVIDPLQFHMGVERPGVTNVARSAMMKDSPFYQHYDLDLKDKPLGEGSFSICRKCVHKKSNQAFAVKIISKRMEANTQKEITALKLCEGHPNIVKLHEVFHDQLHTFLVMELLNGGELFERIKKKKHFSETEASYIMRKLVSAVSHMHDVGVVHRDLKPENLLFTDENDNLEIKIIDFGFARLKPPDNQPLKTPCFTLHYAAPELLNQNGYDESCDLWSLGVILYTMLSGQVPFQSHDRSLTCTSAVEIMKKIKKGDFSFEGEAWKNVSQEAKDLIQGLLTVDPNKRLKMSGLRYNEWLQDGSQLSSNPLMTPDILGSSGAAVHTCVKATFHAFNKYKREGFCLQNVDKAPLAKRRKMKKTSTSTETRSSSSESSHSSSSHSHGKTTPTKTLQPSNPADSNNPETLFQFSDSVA
Protein kinase C iota type (Homo sapiens), sequence (P41743 whole entry, looked up): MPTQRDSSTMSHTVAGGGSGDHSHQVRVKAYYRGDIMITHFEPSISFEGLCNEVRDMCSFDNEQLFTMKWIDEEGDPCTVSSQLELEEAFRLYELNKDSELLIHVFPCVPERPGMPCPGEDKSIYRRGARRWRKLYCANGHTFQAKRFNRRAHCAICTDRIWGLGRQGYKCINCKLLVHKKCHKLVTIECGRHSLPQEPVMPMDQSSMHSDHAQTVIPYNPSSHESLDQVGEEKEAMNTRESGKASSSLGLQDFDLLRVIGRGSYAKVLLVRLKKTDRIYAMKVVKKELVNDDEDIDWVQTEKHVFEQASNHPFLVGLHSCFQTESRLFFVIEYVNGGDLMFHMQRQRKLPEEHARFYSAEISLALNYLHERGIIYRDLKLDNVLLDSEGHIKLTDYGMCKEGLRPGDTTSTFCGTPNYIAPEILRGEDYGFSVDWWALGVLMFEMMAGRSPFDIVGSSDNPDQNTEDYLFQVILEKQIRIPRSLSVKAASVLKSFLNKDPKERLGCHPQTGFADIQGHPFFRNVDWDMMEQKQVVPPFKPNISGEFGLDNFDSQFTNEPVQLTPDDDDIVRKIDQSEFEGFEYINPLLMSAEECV
Rho-associated protein kinase 2 (Homo sapiens), sequence (O75116 whole entry, looked up): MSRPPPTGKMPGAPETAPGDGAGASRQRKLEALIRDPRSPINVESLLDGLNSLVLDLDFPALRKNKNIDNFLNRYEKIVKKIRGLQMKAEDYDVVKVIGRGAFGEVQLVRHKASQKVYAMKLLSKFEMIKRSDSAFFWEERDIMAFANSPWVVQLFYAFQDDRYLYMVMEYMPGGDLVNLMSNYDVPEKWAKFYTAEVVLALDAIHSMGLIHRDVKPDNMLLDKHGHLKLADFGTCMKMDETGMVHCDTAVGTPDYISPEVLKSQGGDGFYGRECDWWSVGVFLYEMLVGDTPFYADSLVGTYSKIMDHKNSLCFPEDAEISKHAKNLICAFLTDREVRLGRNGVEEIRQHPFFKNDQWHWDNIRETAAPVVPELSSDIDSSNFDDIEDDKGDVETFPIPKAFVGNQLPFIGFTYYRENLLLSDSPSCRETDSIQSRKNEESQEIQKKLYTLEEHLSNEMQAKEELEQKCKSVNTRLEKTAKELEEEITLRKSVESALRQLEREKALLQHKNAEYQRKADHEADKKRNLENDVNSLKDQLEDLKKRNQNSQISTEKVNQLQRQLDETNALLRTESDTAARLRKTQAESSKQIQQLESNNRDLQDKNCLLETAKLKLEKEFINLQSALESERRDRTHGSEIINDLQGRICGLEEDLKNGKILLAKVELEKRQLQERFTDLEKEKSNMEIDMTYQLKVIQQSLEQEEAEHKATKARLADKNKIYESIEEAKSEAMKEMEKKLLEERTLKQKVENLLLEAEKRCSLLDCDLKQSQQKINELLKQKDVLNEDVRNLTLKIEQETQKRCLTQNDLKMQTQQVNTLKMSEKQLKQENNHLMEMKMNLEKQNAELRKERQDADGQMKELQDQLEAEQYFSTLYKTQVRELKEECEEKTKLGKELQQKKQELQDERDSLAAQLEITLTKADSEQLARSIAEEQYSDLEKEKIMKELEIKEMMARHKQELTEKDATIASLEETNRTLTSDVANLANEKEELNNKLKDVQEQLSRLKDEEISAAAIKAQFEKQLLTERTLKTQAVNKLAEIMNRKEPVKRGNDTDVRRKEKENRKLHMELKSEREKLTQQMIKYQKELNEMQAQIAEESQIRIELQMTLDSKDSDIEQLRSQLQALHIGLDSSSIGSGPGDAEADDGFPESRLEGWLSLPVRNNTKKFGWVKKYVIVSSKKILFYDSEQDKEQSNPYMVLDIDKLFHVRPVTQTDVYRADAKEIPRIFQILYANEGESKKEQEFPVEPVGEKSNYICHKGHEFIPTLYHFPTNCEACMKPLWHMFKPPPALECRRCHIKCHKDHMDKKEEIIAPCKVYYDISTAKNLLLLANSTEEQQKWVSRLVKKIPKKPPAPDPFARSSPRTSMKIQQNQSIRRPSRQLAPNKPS

As for `CC(C)[C@H](NC(=O)c1cc(-c2cnn3cc(-c4ccc(OCCN5CCCCC5)cc4)cnc23)cs1)C(F)(F)F`, in experiment [1], the fold change (FC) is 0.05.
As to `O=C(N[C@@H](C1CC1)C(F)(F)F)c1cc(-c2cnn3cc(-c4ccc(F)cc4)cnc23)cs1`, the inhibition in experiment [2] worked out at 0%. Besides, the fold change (FC) in experiment [3] was 0; in experiment [4], 0; in experiment [5], 0.03.
`CNC(=O)c1ccccc1Oc1nc(Nc2cc(OC)c(OC)c(OC)c2)ncc1Br`: the results for the fold change (FC) in experiment [6] and in experiment [7] were 0 and 0.11, respectively.

The values are drawn from ChEMBL document CHEMBL5653631, “A Potent and Selective ULK1 Inhibitor Suppresses Autophagy and Sensitizes Cancer Cells to Nutrient Stress” (iScience, 2018).
